{"source": "patent US11083717B2", "about": "“Compositions and methods for drug sensitization of parasites” (The Texas A&M University System, priority 2015, dated 2021)", "key": {"Kinetic solubility": {"assay": "Kinetic solubility", "assay_type": "physicochemical"}, "[1]": {"assay": "Plasma pharmacokinetics in mouse", "assay_type": "in vivo, female Balb/c mouse", "conditions": "for AUC(0-t): read-out: AUC0-24 (converted)", "protocol": "To investigate the relationship between anticryptosporidial activity and systemic exposure the plasma pharmacokinetics for NZ-369 were measured. […] The pharmacokinetics of NZ-369 following single intravenous (IV) and oral administration (PO) at 3 and 10 mg free base/kg respectively to the female Balb/c mouse."}, "Cryptosporidium parvum": {"system": "Cryptosporidium parvum", "protocol": "The anticryptosporidial activity of the in vitro inhibitors was assessed in the IL-12 knockout mouse model that resembles the acute human disease (Ehigiator H N, Romagnoli P, Borgelt K, Fernandez M, McNair N, Secor W E, Mead J R. 2005. Mucosal cytokine and antigen-specific responses to Cryptosporidium parvum in IL-12p40 KO mice. Parasite Immunol. 27: 17-28; Campbell L D, Stewart J N, Mead J R. 2002. Susceptibility to Cryptosporidium parvum infections in cytokine- and chemokine-receptor knockout mice. J. Parasitol. 88:1014-1016). The protocol was approved by the Institutional Animal Care and Use Committees of Emory University, the AtlantaVAMedical Center, and Brandeis University. Mice (6 to 10 per group) were inoculated with 1,000 purified CP oocysts (Iowa isolate, from cattle). Treatment by gavage began 4 h postinfection with either vehicle (5% dimethyl sulfoxide (DMSO) in canola oil), 50-100 mg/kg compound, or 2,000 mg/kg paromomycin. Compounds were given for 7 days, and mice were sacrificed on day 8 (peak infection). Parasite load was quantified by fluorescence-activated cell sorting (FACS) assays for the presence of the oocysts in the feces at days 0, 4, and 7. Fecal pellets from individual mice were routinely collected daily and homogenized in adjusted volumes of 2.5% potassium dichromate. Samples were processed individually. Aliquots (200 ul) of vortexed samples were processed over microscale sucrose gradients as previously described (Arrowood M J, Hurd M R, Mead J R. 1995. A new method for evaluating experimental cryptosporidial parasite loads using immunofluorescent flowcytometry. J. Parasitol. 81:404-409). The oocyst-containing fraction was collected, washed, and treated with monoclonal antibody (OW5O-FITC) for 20 min. Samples were adjusted to 600 ul, and a portion (100 ul) was assayed with a 102-s sampling interval using logical gating of forward/side scatter and OW5O-FITC fluorescence signal on a Becton, Dickinson FACScan flow cytometer. Flow cytometry data were evaluated by analysis of variance (KaleidaGraph (Synergy Software, Reading Pa.); Microsoft Excel (Microsoft Corporation, Redmond, Wash.)).\nNZ-366 (50 mg/kg) and NZ-369 (100 mg/kg) were administered via gavage in a single daily dose to IL-12 knockout mice that were infected with 1,000 CP oocysts. Additional control groups included those treated with single daily doses of vehicle, and paromomycin (Prm) (2,000 mg/kg), by oral gavage."}, "CP": {"system": "CP", "assay": "Calf study of CP infection", "assay_type": "in vivo, calves", "protocol": "New born calves are susceptible to CP infection. They can develop severe diarrhea like humans. Calves were inoculated with 5×10^7 CP oocysts/calf on day 0. Calves had diarrhea in both the groups at onset of dosing. Treatment was started on day 3. Calves were given NZ-369 @ 8.5 mg/kg every 12 hrs for 5 days. Fecal volume, urine volume, daily clinical evaluation, fecal consistency scores and weight gains were evaluated."}, "Plasma protein binding": {"assay": "Plasma protein binding", "assay_type": "in vitro ADME", "conditions": "mouse, mice, read-out: PPB (converted)"}, "[2]": {"conditions": "female, Balb/c, mouse, plasma, 3 mg/kg, IV 3 mg free base/kg, single dose"}, "[3]": {"conditions": "female, Balb/c, mouse, plasma, 10 mg/kg, PO 10 mg free base/kg, single dose"}, "[4]": {"conditions": "NZ-366 50 mg/kg, NZ-369 100 mg/kg, paromomycin 2,000 mg/kg"}}, "note": "Like-named read-outs stand apart in the source and are kept apart here.", "data": [{"smiles": "CNC(=O)C(C)c1ccc(Oc2nc3ccc(Cl)cc3s2)cc1", "note": "(stereo not drawn) [NZ-369, 2-{4-[(6-chloro-1,3-benzothiazol-2-yl)oxy]phenyl}-N-methylpropanamide]", "values": [{"measurement": "Kinetic Sol.", "setting": "Kinetic solubility", "result": 86, "unit": "µM"}, {"measurement": "Clb", "setting": "[1]; IV 3 mg free base/kg, single dose", "result": 6.6, "unit": "mL/min/kg"}, {"measurement": "half-life", "setting": "[1]; [2]", "result": 3.4, "unit": "h"}, {"measurement": "AUC(0-t)", "setting": "[1]; [2]", "result": 7540, "unit": "ng·h/mL"}, {"measurement": "Vd", "setting": "[1]; female, Balb/c, mouse, plasma, 3 mg/kg, IV 3 mg free base/kg, single dose, read-out: Vdss", "result": 1.7, "unit": "L/kg"}, {"measurement": "Cmax", "setting": "[1]; [3]", "result": 2160, "unit": "ng/mL"}, {"measurement": "Tmax", "setting": "[1]; [3]", "result": 2, "unit": "h"}, {"measurement": "AUC(0-t)", "setting": "[1]; [3]", "result": 19800, "unit": "ng·h/mL"}, {"measurement": "bioavailability", "setting": "[1]; female, Balb/c, mouse, plasma, 10 mg/kg, printed in the IV column, PO 10 vs IV 3 mg free base/kg", "result": 78.8, "unit": "%"}, {"measurement": "systemic pharmacokinetics (in words)", "setting": "[1]; plasma", "result": "excellent systemic pharmacokinetics"}, {"measurement": "Mouse Model (Mead) DPI7", "setting": "Cryptosporidium parvum; @100 mg/kg, day 7 post infection", "result": "DPI7 = 70%"}, {"measurement": "overt toxicity in the treated infected mice", "setting": "Cryptosporidium parvum; NZ-366 50 mg/kg, NZ-369 100 mg/kg, 7 days", "result": "no overt toxicity"}, {"measurement": "anticryptosporidial activity, fecal oocysts day 7 post infection", "setting": "Cryptosporidium parvum; NZ-366 50 mg/kg, NZ-369 100 mg/kg, gavage, single daily dose, FIG. 1", "result": "have anticryptosporidial activity"}, {"measurement": "effectiveness compared with paromomycin after a single dose", "setting": "Cryptosporidium parvum; [4]", "result": "more effective than paromomycin"}, {"measurement": "effectiveness compared with paromomycin over the course of the study", "setting": "Cryptosporidium parvum; [4]", "result": "equally as effective as paromomycin"}, {"measurement": "fecal volume vs control", "setting": "CP; 8.5 mg/kg every 12 hrs for 5 days from day 3, through day 8 post infection, FIG. 2", "result": "marked reduction in fecal volume"}, {"measurement": "clinical evaluation scores", "setting": "CP; 8.5 mg/kg every 12 hrs for 5 days, FIG. 4", "result": "higher clinical evaluation scores and greater improvement post-infection"}, {"measurement": "weight over the trial period vs control calf", "setting": "CP; 8.5 mg/kg every 12 hrs for 5 days, FIG. 6", "result": "maintained their weight"}, {"measurement": "fecal consistency score vs control calves", "setting": "CP; 8.5 mg/kg every 12 hrs for 5 days, days 4-7 post infection, FIG. 5", "result": "lower fecal consistency score"}, {"measurement": "urine output vs control calves", "setting": "CP; 8.5 mg/kg every 12 hrs for 5 days, except on day 4 post-infection, FIG. 3", "result": "Greater urine output"}, {"measurement": "fraction unbound", "setting": "Plasma protein binding", "result": 0.015}]}]}
